Assay results: patent publication US20190091227A1, “METHODS FOR TREATING ER+, HER2-, HRG+ BREAST CANCER USING COMBINATION THERAPIES COMPRISING AN ANTI-ERBB3 ANTIBODY” (Merrimack Pharmaceuticals, Inc., priority 2016, published 2019)
Read-outs that look alike come from different tables or passages of the source.

Experiments:
[1] = test system: RB; experiment: RB phosphorylation (S807/811, S780) by Western blotting in MCF7 cells; type: cell-based, human; settings: for RB phosphorylation / activation: MCF7, 20-24 hours, HRG 10 nM, fulvestrant 50 nM, palbociclib, abemaciclib 40 nM
Method: MCF7 cells were cultured as described above. […] Cellular lysates were prepared by lysis in MPER lysis buffer with the addition of protease and phosphatase inhibitors for 30 mins on ice. Cellular debris were removed by centrifugation at 10,000 rpm. Proteins were analyzed by Western blotting according to standard protocols. Protein loading was estimated by blotting with a β-actin antibody (β-Actin (13E5) Rabbit mAb #4970 Cell Signal) and RB activation was measured by detection of phosphorylation of RB (pRB) at pRb (S807/811): Cat #8516 pRb (S780): Cat #8180. Control antibodies as follows total AKT: Cat #9272 pAKT: Cat #4060.

[2] = test system: MCF7 cells; experiment: Proliferation assay (Cell Titer-Glo), MCF7; type: cell-based, human; settings: for proliferation: MCF7, single agent CDK4/6 inhibitor over a dose range
Method: (§1) Cells were seeded in duplicate or triplicate at 1500 to 5000 cells per well in 96 well plates, Opaque-walled 96-well plates with clear bottom: 96-well, Black/Clear, Flat bottom with lid, FALCON, 353219 in reduced serum conditions at either 3% v/v FBS or 1% v/v FBS. The day after plating recombinant HRGβ1 was added to yield a final concentration of 10 nM. Control wells received media without HRGβ1. Plates were then incubated for the indicated time period of 4 to 6 days at 37° C. in a humid atmosphere with 95% air, 5% CO2.
(§2) The day after plating recombinant HRGβ1 was added to yield a final concentration of 10 nM. Control wells received media without HRGβ1. […] Where indicated CDK inhibitors were added at 10 μM and dilutions were performed to generate a dose-response curve with 2 controls wells per row. Plates were then incubated for the indicated time period of 4 to 6 days at 37° C. in a humid atmosphere with 95% air, 5% CO2. Growth inhibition was calculated as a function of the relative inhibition or proliferation of cells treated with either growth factor or antagonists to cells treated with diluent only, over the same time period.
(§3) The day after plating recombinant HRGβ1 was added to yield a final concentration of 10 nM. Control wells received media without HRGβ1. […] Where indicated CDK inhibitors were added at 10 μM and dilutions were performed to generate a dose-response curve with 2 controls wells per row. Plates were then incubated for the indicated time period of 4 to 6 days at 37° C. in a humid atmosphere with 95% air, 5% CO2.
(§4) To measure proliferation, Cell Titer-Glo (CTG) assays were performed as per manufacturer's instructions. Specifically, reagent-1 and reagent-2 were equilibrated to room temperature at which point reagent-1 was added to reagent-2 and mixed by vortex. Test plates containing cells were equilibrated to room temperature for 30 minutes at which point an equal volume of CTG reagent was added to each well of the test plate, typically 100 μl to give a final volume of 200 μl per well. Each plate was then sealed with a foil plate sealer and mixed on an orbital shaker for 10 minutes to lyse cells and release cellular ATP. Following mixing plates were incubated at room temperature for 15 minutes to stabilize the luminescent signal. Data was collected by measuring relative luminescence on a Synergy H1 plate reader using the luminescence program. Growth was calculated and expressed as a relative value to the unstimulated control wells on each individual plate. Growth inhibition was calculated as a function of the relative inhibition of cells treated with antagonists to the growth of cells treated with diluent only, over the same time period. Data was then plotted using GraphPad Prism software.

[3] = cited from earlier work
[4] = test system: CDK2; experiment: CDK2 activation (phospho-Thr160) by Western blotting in MCF7 cells; type: cell-based, human
Method: Cellular lysates were prepared by lysis in MPER lysis buffer with the addition of protease and phosphatase inhibitors for 30 minutes on ice. Cellular debris was removed by centrifugation at 10,000 rpm. Proteins were analyzed by Western blotting according to standard protocols.

[5] = test system: MCF7 cells; experiment: Cell cycle / S-phase by EdU incorporation and flow cytometry in MCF7 cells; type: cell-based, human
Method: FIG. 13 is a representative FACS plot of the cell cycle distribution. The gate settings and percentage for cells in G0/G1, S and G2/M phases are indicated. DNA synthesis (S-phase) was determined by quantifying cells positive for both EdU incorporation and DNA content.

[6] = test system: T47D cells; experiment: Proliferation assay (Cell Titer-Glo), T47D; type: cell-based, human
Method: as §1, §2, §3, §4

[7] = test system: MCF-7Ca xenograft tumors; experiment: MCF-7Ca xenograft model of post-menopausal ER+ breast cancer; type: in vivo, mice
Method: A model of post-menopausal ER+ breast cancer was used to determine the effect of blocking HRG-mediated ERB3 signaling and/or estrogen-mediated ER activation on tumor growth (FIG. 16). […] Changes in mean tumor volume (±SEM) were determined weekly by caliper measurement.

[8] = test system: MCF7 cells; experiment: MCF7 orthotopic xenograft model of ER+ HER2- breast cancer; type: in vivo; settings: SHO mice
Method: Female SHO mice (Charles River Laboratories) aged 8-10 weeks were implanted with 17-beta-estradiol pellets (0.72 mg/pellet) and 2 days later, injected with 100 μl of 5×10^6 MCF7 cells suspended in 50% DPBS/50% matrigel into the abdominal mammary fat pad. Tumor growth was monitored twice a week and tumor volumes were calculated following external caliper measurement according to the formula (tumor size=π/6×[length×width^2]). Once the average measured tumor volume had reached approximately 200 mm^3, mice were randomized into groups and treatment was administered. Overall, the average starting tumor volume per group was equivalent across all groups. Fulvestrant was dosed at 500 μg per mouse once per week via subcutaneous delivery. Palbociclib was dosed at 25 mg/kg, orally every day for 5 days, Monday through Friday.

[9] = test system: ZR75-1 cells; experiment: Proliferation assay (Cell Titer-Glo), ZR75-1; type: cell-based, human; settings: ZR75-1, CDK4/6 inhibitor plus HRG
Method: as §2
The day after plating recombinant HRGβ1 was added to yield a final concentration of 10 nM. Control wells received media without HRGβ1. […]
To measure proliferation, Cell Titer-Glo (CTG) assays were performed as per manufacturer's instructions. […] Data was collected by measuring relative luminescence on a Synergy H1 plate reader using the luminescence program. Growth was calculated and expressed as a relative value to the unstimulated control wells on each individual plate. Growth inhibition was calculated as a function of the relative inhibition of cells treated with antagonists to the growth of cells treated with diluent only, over the same time period. […]

## CCN1CCN(Cc2ccc(Nc3ncc(F)c(-c4cc(F)c5nc(C)n(C(C)C)c5c4)n3)nc2)CC1 [abemaciclib, 2-pyrimidinamine, N-(5-((4-ethyl-1-piperazinyl)methyl)-2-pyridinyl)-5-fluoro-4-(4-fluoro-2-methyl-1-(1-methylethyl)-1H-benzimidazol-6-yl), reference compound]
[1]
  RB phosphorylation / activation: decrease RB activation
[2]; 6 days
  proliferation: inhibited proliferation in a dose dependent manner

## CC(C)(C#N)c1cc(Cn2cncn2)cc(C(C)(C)C#N)c1 [anastrozole, a,a,a′,a′-Tetramethyl-5-(1H-1,2,4-triazol-1-ylmethyl)-1,3-benzenediacetonitrile]
[3]; in acetone
  solubility: freely soluble
[3]; in acetonitrile
  solubility: very soluble
[3]; in ethanol
  solubility: freely soluble
[3]; in methanol
  solubility: freely soluble
[3]; in tetrahydrofuran
  solubility: freely soluble

## C[C@]12CC[C@@H]3c4ccc(O)cc4C[C@@H](CCCCCCCCC[S+]([O-])CCCC(F)(F)C(F)(F)F)[C@H]3[C@@H]1CC[C@@H]2O (stereo partly drawn) [fulvestrant, 7-alpha-[9-(4,4,5,5,5-pentafluoropentylsulphinyl)nonyl]estra-1,3,5-(10)-triene-3,17beta-diol, reference compound]
[4]; MCF7, agent alone, 20-24 hours, HRG 10 nM, fulvestrant, palbociclib, abemaciclib 100 nM
  CDK2 activation: inhibited CDK2 activation
[1]
  RB phosphorylation / activation: inhibits RB activation
[2]; MCF7, CDK4/6 inhibitor plus fulvestrant (50 nM)
  degree of inhibition of proliferation: greater than the activity of the CDK4/6 inhibitor alone
[2]; MCF7, HRG present in addition to estradiol
  fulvestrant activity on proliferation: significantly decreased
[2]; MCF7, fulvestrant 100 nM, 6 days
  inhibition of estradiol induced proliferation: effective at inhibiting estradiol induced proliferation
[5]; MCF7, single agents in the absence of HRG
  S-phase cell cycle progression: efficacious at inhibiting S-phase cell cycle progression
[6]; HRG present in addition to estradiol
  fulvestrant activity on proliferation: significantly decreased
[6]; fulvestrant 100 nM, 6 days
  inhibition of estradiol induced proliferation: effective at inhibiting estradiol induced proliferation

## N#Cc1ccc(C(c2ccc(C#N)cc2)n2cncn2)cc1 [letrozole, 4,4′-(1H-1,2,4-Triazol-1-ylmethylene)dibenzonitrile]
[3]; in dichloromethane
  solubility: freely soluble
[3]; in ethanol
  solubility: slightly soluble
[3]; in water
  solubility: practically insoluble
[7]; letrozole 10 μg/mouse/day x 5 days/week SQ
  tumor response: initially responded
[7]; letrozole monotherapy, time of treatment
  start of development of resistance: 7-8 weeks

## CN(C)C(=O)c1cc2cnc(Nc3ccc(N4CCNCC4)cn3)nc2n1C1CCCC1 [ribociclib, 7-cyclopentyl-N,N-dimethyl-2-((5-(piperazin-1-yl)pyridin-2-yl)amino)-7H-pyrrolo[2,3-d]pyrimidine-6-carboxamide, reference compound]
[2]; 6 days
  proliferation: inhibited proliferation in a dose dependent manner

B1: seribantumab: human monoclonal anti-ErbB3 IgG2; heavy and light chains SEQ ID NO: 7 and 8 (antibody)
heavy: EVQLLESGGGLVQPGGSLRLSCAASGFTFSHYVMAWVRQAPGKGLEWVSSISSSGGWTLYADSVKGRFTISRDNSKNTLYLQMNSLRAEDTAVYYCTRGLKMATIFDYWGQGTLVTVSSASTKGPSVFPLAPCSRSTSESTAALGCLVKDYFPEPVTVSWNSGALTSGVHTFPAVLQSSGLYSLSSVVTVPSSNFGTQTYTCNVDHKPSNTKVDKTVERKCCVECPPCPAPPVAGPSVFLFPPKPKDTLMISRTPEVTCVVVDVSHEDPEVQFNWYVDGVEVHNAKTKPREEQFNSTFRVVSVLTVVHQDWLNGKEYKCKVSNKGLPAPIEKTISKTKGQPREPQVYTLPPSREEMTKNQVSLTCLVKGFYPSDIAVEWESNGQPENNYKTTPPMLDSDGSFFLYSKLTVDKSRWQQGNVFSCSVMHEALHNHYTQKSLSLSPGK
light: QSALTQPASVSGSPGQSITISCTGTSSDVGSYNVVSWYQQHPGKAPKLIIYEVSQRPSGVSNRFSGSKSGNTASLTISGLQTEDEADYYCCSYAGSSIFVIFGGGTKVTVLGQPKAAPSVTLFPPSSEELQANKATLVCLVSDFYPGAVTVAWKADGSPVKVGVETTKPSKQSNNKYAASSYLSLTPEQWKSHRSYSCRVTHEGSTVEKTVAPAECS
[4]; MCF7, in the presence of fulvestrant or CDK4/6 inhibitors palbociclib and abemaciclib
  effect on HRG-induced CDK2 activation: blocked HRG mediated activation of CDK2
[4]; MCF7, seribantumab 1 uM, HRG 10 nM
  effect on HRG-induced CDK2 activation: can block the activating effect of HRG on CDK2 activation
[8]
  growth inhibition, addition of seribantumab to the combination of palbociclib and fulvestrant: increases the growth inhibition
[8]; seribantumab 600 μg twice per week IP, fulvestrant 500 μg once per week SC
  antitumor efficacy, addition of seribantumab to fulvestrant: increased the antitumor efficacy
[8]; seribantumab 600 μg twice per week IP, palbociclib 25 mg/kg orally
  antitumor efficacy, addition of seribantumab to palbociclib: increased the antitumor efficacy
[1]; MCF7, seribantumab 1 uM, with HRG, alone or in combination
  effect of seribantumab on activity of fulvestrant, palbociclib and abemaciclib on RB: restored the activity
[9]
  effect of adding seribantumab on CDK4/6 inhibitor activity: restored sensitivity
[2]; MCF7, CDK4/6 inhibitor plus HRG 10 nM
  effect of adding seribantumab on CDK4/6 inhibitor activity: restored CDK inhibitory activity
[2]; MCF7, with HRG
  effect of adding seribantumab on the CDK4/6 inhibitor-fulvestrant combination: restored sensitivity
[2]; MCF7 treated with fulvestrant, estradiol and HRG
  effect of adding seribantumab on proliferation: restoration of the activity of fulvestrant
[7]; co-treated with letrozole and seribantumab
  resistance to letrozole: substantially delayed
[7]; co-treated with letrozole and seribantumab (750 μg/mouse IP)
  tumor growth: tumor growth was inhibited
[7]; re-randomized at week 14, letrozole and seribantumab compared to letrozole alone
  tumor growth of letrozole-resistant tumors: significantly decreased tumor growth
[5]; MCF7, in the presence of HRG
  effect of seribantumab on cell cycle inhibitory activity of fulvestrant or palbociclib: restores this activity
  effect of seribantumab on cell cycle inhibitory activity of the palbociclib-fulvestrant combination: restored this activity
